In US10406175B2, “Polymer-flavonoid conjugate and uses thereof” (Agency for Science, Technology and Research, priority 2014, dated 2019):

Experiments:
Assay type in all cases: cell-based, human
[1] = tested on: IL-6; experiment: IL-1ß-induced IL-6 expression in OA chondrocytes (RT-PCR and ELISA); details: IL-1ß 5 ng/ml, 24 h; EGCG 10 μM; HA or conjugate at two concentrations (FIGS. 2, 5)
Procedure: (§1) Cryopreserved human osteoarthritis chondrocytes (passage 1) were obtained from Cell Applications, INC. (USA). The cells were thawed and cultured in T75 cell culture flasks using complete growth medium (DMEM/F12 medium supplemented with 10% FBS and 1% penicillin/streptomycin). The cells were maintained at 37° C. and 5% CO2 atmosphere. Growth medium was replaced every 2-3 days and the cells were subcultured at 80% confluency. Only cells at passage 2 and 3 were used in this study. After expansion, the cells were re-differentiated in alginate beads according to previously established protocol with some modifications. Briefly, cells were trypsinized, pelleted and resuspended in 1.2% (w/v) sodium alginate in 0.15 M NaCl. The cell suspension was dispensed through a 210 needle dropwise into gelation solution (102 mM CaCl2, 10 mM HEPES and 0.0005% Tween 20, pH 7.4). Approximately 15 alginate beads were dispensed in 5 ml of gelation solution in a 6-wellplate. After gelation for 10 min, the gelation solution was removed and the alginate beads were washed twice with 5 ml of 0.15 M NaCl. Complete growth medium (5 ml) was then added and the cells were re-differentiated for 8 days in the alginate beads. Medium was changed every 2-3 days. After 8 days, the alginate beads were solubilized in dissolution solution (55 mM EDTA and 10 mM HEPES, pH 7.4).

[2] = tested on: MMP-3; experiment: IL-1ß-induced MMP-3 expression in OA chondrocytes (RT-PCR and ELISA); details: IL-1ß 5 ng/ml, 24 h; EGCG 10 μM; HA or conjugate at two concentrations (FIGS. 3, 6)
Procedure: as §1

[3] = tested on: MMP-1; experiment: IL-1ß-induced MMP-1 expression in OA chondrocytes (RT-PCR and ELISA); details: IL-1ß 5 ng/ml, 24 h; EGCG 10 μM; HA or conjugate at two concentrations (FIGS. 3, 6)
Procedure: as §1

[4] = tested on: TNF-α; experiment: IL-1ß-induced TNF-α expression in OA chondrocytes (RT-PCR and ELISA); details: IL-1ß 5 ng/ml, 24 h; EGCG 10 μM; HA or conjugate at two concentrations (FIGS. 2, 5)
Procedure: as §1

[5] = tested on: MMP-13; experiment: IL-1ß-induced MMP-13 expression in OA chondrocytes (RT-PCR and ELISA); details: IL-1ß 5 ng/ml, 24 h; EGCG 10 μM; HA or conjugate at two concentrations (FIGS. 3, 6)
Procedure: as §1

O=C(O[C@@H]1Cc2c(O)cc(O)cc2O[C@@H]1c1cc(O)c(O)c(O)c1)c1cc(O)c(O)c(O)c1 [EGCG, epigallocatechin gallate]
effectively inhibited: downregulation of IL-1ß-induced IL-6 gene and protein expression [1] | downregulation of IL-1ß-induced MMP-3 gene and protein expression [2] | downregulation of IL-1ß-induced MMP-1 gene and protein expression [3] | downregulation of IL-1ß-induced TNF-α gene and protein expression [4] | downregulation of IL-1ß-induced MMP-13 gene and protein expression [5]
